According to patent US20230320956A1, “DIARYLALKANE COMPOUNDS AND COMPOSITIONS FOR USE WITH SKIN AGING AND METHODS OF PRODUCTION THEREOF” (Unigen, Inc., priority 2022, published 2023):

Test system: keratinocytes (Hacat cell line)
Experiment: Global gene expression (RNA-seq) in treated keratinocytes
Assay type: cell-based, human
Conditions: for Fold change (gene expression): 40 μM vs untreated; for Fold Enrichment / Number of Genes Differentially Expressed: 40 μM
Description: To determine specific expression changes dimethoxytolyl propylresorcinol exerted on human keratinocyte aging genes, keratinocytes (Hacat cell line) were treated dimethoxytolyl propylresorcinol at 40 μM and gene expression was analyzed by RNA-seq. Differential gene expression was compared to untreated keratinocytes and cells treated with 40 μM Retinol A to find genes involved in aging. […] Retinol was chosen as a positive control because retinoids have been described as having effective anti-aging and anti-wrinkle effects (Zasada M, 2019). We directly compared the effects of Retinol on keratinocytes with the same concentration of dimethoxytolyl propylresorcinol.

[1] = Gene Cluster Activation of MAPK activity
[2] = Gene Cluster Calcium ion binding
[3] = Gene Cluster Cell-cell signaling
[4] = Gene Cluster Cellular response to lipopolysaccharide
[5] = Gene Cluster Cellular response to retinoic acid
[6] = Gene Cluster Epidermis development
[7] = Gene Cluster Epithelial cell differentiation
[8] = Gene Cluster Extracellular exosome
[9] = Gene Cluster Extracellular matrix organization
[10] = Gene Cluster Extracellular region
[11] = Gene Cluster Extracellular space
[12] = Gene Cluster Growth factor activity
[13] = Gene Cluster Inflammatory response
[14] = Gene Cluster Intermediate filament cytoskeleton organization
[15] = Gene Cluster Negative regulation of ERK1 and ERK2 cascade
[16] = Gene Cluster Negative regulation of cell proliferation
[17] = Gene Cluster Negative regulation of endopeptidase activity
[18] = Gene Cluster Neutrophil chemotaxis
[19] = Gene Cluster O-glycan processing
[20] = Gene Cluster Osteoblast differentiation
[21] = Gene Cluster Positive regulation of angiogenesis
[22] = Gene Cluster Positive regulation of cell migration
[23] = Gene Cluster Positive regulation of cell proliferation
[24] = Gene Cluster Positive regulation of gene expression
[25] = Gene Cluster Positive regulation of smooth muscle cell proliferation
[26] = Gene Cluster Proteinaceous extracellular matrix
[27] = Gene Cluster Transforming growth factor beta receptor binding

CC1=C(/C=C/C(C)=C/C=C/C(C)=C/CO)C(C)(C)CCC1 [Retinol, reference compound]
Fold change (gene expression) (AHR - Aryl hydrocarbon receptor, Oxidative stress): No effect | Fold change (gene expression) (ANGPTL4 - Angiopoietin-like 4, Negative regulation of growth/Angiogenesis): 2.77 fold | Fold change (gene expression) (ANOS1 - Anosmin 1, ECM/Nerve adhesion): 0.55 fold | Fold change (gene expression) (BMP4 - Bone morphogenetic protein 4, Growth): 0.51 fold | Fold change (gene expression) (C3orf33 - Chromosome 3 open reading frame 33, Negative regulation of growth): 2.24 fold | Fold change (gene expression) (CD1D - CD1d molecule, ECM): 0.32 fold | Fold change (gene expression) (CDK5R1 - Cyclin-dependent kinase 5 activator 1, Growth/Skin barrier): No effect | Fold change (gene expression) (CEACAM1 - CEA cell adhesion molecule 1, Cell adhesion): 3.00 fold | Fold change (gene expression) (COL1A1 - Collagen type 1, ECM): No effect | Fold change (gene expression) (COL5A1 - Collagen type V alpha 1 chain, ECM): 0.27 fold | Fold change (gene expression) (CRISPLD2 - Cysteine-rich secretory protein LCCL domain-containing 2, ECM): 1.98 fold | Fold change (gene expression) (CXCL3 - C-X-C motif chemokine ligand 3, Immune signaling): 2.60 fold | Fold change (gene expression) (CYP1A1 - Cytochrome P450 family 1 subfamily A member 1, Drug metabolism): 2.30 fold | Fold change (gene expression) (ECM1 - Extracellular matrix protein 1, ECM): No effect | Fold change (gene expression) (EPHA4 - Ephrin type-A receptor 4, Cell adhesion, cell communication): 0.55 fold | Fold change (gene expression) (EREG - Epiregulin, Growth): No effect | Fold change (gene expression) (FABP5 - Fatty acid binding protein 5, Skin barrier): No effect | Fold change (gene expression) (FGF1 - Fibroblast growth factor 1, Growth): 0.45 fold | Fold change (gene expression) (FGF11 - Fibroblast growth factor 11, Growth): 0.50 fold | Fold change (gene expression) (FLRT2 - Fibronectin leucine-rich transmembrane protein 2, ECM): 0.58 fold | Fold Enrichment [1]: 3.15 fold | Number of Genes Differentially Expressed [1]: 7 | Fold Enrichment (Gene Cluster Angiogenesis): 2.37 fold | Number of Genes Differentially Expressed (Gene Cluster Angiogenesis): 11 | Fold Enrichment [2]: 2.04 fold | Number of Genes Differentially Expressed [2]: 30 | Fold Enrichment (Gene Cluster Cell development): 4.81 fold | Number of Genes Differentially Expressed (Gene Cluster Cell development): 4 | Fold Enrichment (Gene Cluster Cell surface): 1.84 fold | Number of Genes Differentially Expressed (Gene Cluster Cell surface): 20 | Fold Enrichment [3]: 2.46 fold | Number of Genes Differentially Expressed [3]: 13 | Fold Enrichment [4]: 4.26 fold | Number of Genes Differentially Expressed [4]: 10 | Fold Enrichment [5]: 4.12 fold | Number of Genes Differentially Expressed [5]: 6 | Fold Enrichment [6]: 4.53 fold | Number of Genes Differentially Expressed [6]: 8 | Fold Enrichment [7]: 4.81 fold | Number of Genes Differentially Expressed [7]: 7 | Fold Enrichment [8]: 1.47 fold | Number of Genes Differentially Expressed [8]: 83 | Fold Enrichment [9]: 3.19 fold | Number of Genes Differentially Expressed [9]: 13 | Fold Enrichment [10]: 1.73 fold | Number of Genes Differentially Expressed [10]: 56 | Fold Enrichment [11]: 2.48 fold | Number of Genes Differentially Expressed [11]: 67 | Fold Enrichment [12]: 3.00 fold | Number of Genes Differentially Expressed [12]: 10 | Fold Enrichment (Gene Cluster Growth): 6.87 fold | Number of Genes Differentially Expressed (Gene Cluster Growth): 4 | Fold Enrichment (Gene Cluster Heparin binding): 4.86 fold | Number of Genes Differentially Expressed (Gene Cluster Heparin binding): 16 | Fold Enrichment [13]: 2.54 fold | Number of Genes Differentially Expressed [13]: 20 | Fold Enrichment [14]: 9.62 fold | Number of Genes Differentially Expressed [14]: 3 | Fold Enrichment [15]: 5.81 fold | Number of Genes Differentially Expressed [15]: 7 | Fold Enrichment [16]: 2.43 fold | Number of Genes Differentially Expressed [16]: 20 | Fold Enrichment [17]: 2.78 fold | Number of Genes Differentially Expressed [17]: 7 | Fold Enrichment [18]: 3.65 fold | Number of Genes Differentially Expressed [18]: 5 | Fold Enrichment [19]: 4.00 fold | Number of Genes Differentially Expressed [19]: 5 | Fold Enrichment [20]: 3.24 fold | Number of Genes Differentially Expressed [20]: 7 | Fold Enrichment [21]: 3.35 fold | Number of Genes Differentially Expressed [21]: 8 | Fold Enrichment [22]: 3.40 fold | Number of Genes Differentially Expressed [22]: 13 | Fold Enrichment [23]: 1.86 fold | Number of Genes Differentially Expressed [23]: 18 | Fold Enrichment [24]: 2.20 fold | Number of Genes Differentially Expressed [24]: 12 | Fold Enrichment [25]: 4.81 fold | Number of Genes Differentially Expressed [25]: 6 | Fold Enrichment [26]: 4.27 fold | Number of Genes Differentially Expressed [26]: 23 | Fold Enrichment (Gene Cluster Response to drug): 2.37 fold | Number of Genes Differentially Expressed (Gene Cluster Response to drug): 15 | Fold Enrichment [27]: 5.79 fold | Number of Genes Differentially Expressed [27]: 5 | Fold change (gene expression) (HAS2 - hyaluronan synthase 2, ECM): No effect | Fold change (gene expression) (HAS3 - hyaluronan synthase 3, ECM): No effect | Fold change (gene expression) (HBEGF - Heparin-binding EGF-like growth factor, Growth): No effect | Fold change (gene expression) (HIF1A - Hypoxia-inducible factor 1 subunit alpha, Oxidative stress): No effect | Fold change (gene expression) (HMOX1 - Heme oxygenase 1, Oxidative stress): No effect | Fold change (gene expression) (HS3ST1 - Heparan sulfate-glucosamine 3-sulfotransferase 1, ECM): 1.48 fold | Fold change (gene expression) (IL1A - Interleukin 1 alpha, Cytokine signaling): No effect | Fold change (gene expression) (IL1RL1 - Interleukin 1 receptor-like 1, Immune signaling): 3.13 fold | Fold change (gene expression) (ITGA6 - Integrin subunit alpha 6, Cell adhesion): 0.59 fold | Fold change (gene expression) (ITGBL1 - Integrin subunit beta-like 1, Cell adhesion): No effect | Fold change (gene expression) (KIF13A - Kinesin family member 13A, Cytoskeleton/secretion): 0.68 fold | Fold change (gene expression) (LAMA3 - Laminin subunit alpha 3, ECM): No effect | Fold change (gene expression) (LAMC2 - Laminin subunit gamma 2, ECM): 0.71 fold | Fold change (gene expression) (NGF - Nerve growth factor, Growth): No effect | Fold change (gene expression) (NID2 - Nidogen 2 precursor, ECM): 0.79 fold | Fold change (gene expression) (OCLN - Occludin, Skin barrier): No effect | Fold change (gene expression) (OLFM4 - Olfactomedin 4, ECM): 0.28 fold | Fold change (gene expression) (PARP15 - Poly (ADP-Ribose) polymerase family member 15, DNA damage repair/transcription regulation): No effect | Fold change (gene expression) (PI3 - Peptidase inhibitor 3, elastase inhibitor, Elastin genes): No effect | Fold change (gene expression) (PSAPL1 - Prosaposin-like 1, ECM): 0.32 fold | Fold change (gene expression) (PSG5 - Pregnancy specific beta-1-glycoprotein 5, ECM): 0.37 fold | Fold change (gene expression) (PTPRR - Protein tyrosine phosphatase receptor type R, Negative regulation of growth): 2.31 fold | Fold change (gene expression) (RAPGEF3 - Rap guanine nucleotide exchange factor 3, Plasma membrane fusion/cytoskeleton): 1.81 fold | Fold change (gene expression) (SELE - E-Selectin, Cell adhesion): No effect | Fold change (gene expression) (SEMA3D - Semaphorin 3D, ECM/Nerve growth): 0.50 fold | Fold change (gene expression) (SERPINB2 - Serpin family B member 2, Skin barrier): 0.70 fold | Fold change (gene expression) (SERPINB4 - Serpin family B member 4, Skin barrier): No effect | Fold change (gene expression) (SIRT1 - Sirtuin 1, Transcription regulation): No effect | Fold change (gene expression) (SIRT7 - Sirtuin 7, Transcription regulation): No effect | Fold change (gene expression) (SOD2 - Superoxide dismutase 2, Oxidative stress): No effect | Fold change (gene expression) (TFP12 - Tissue factor pathway inhibitor 2, ECM): 2.46 fold | Fold change (gene expression) (TGFB1 - Transforming growth factor beta 1, TGF-β signaling): No effect | Fold change (gene expression) (TLR4 - Toll-like receptor 4, Immune signaling): 2.67 fold | Fold change (gene expression) (TNC - Tenascin C, ECM/Nerve growth): 0.14 fold | Fold change (gene expression) (TP73 - Tumor protein P73, Growth): 0.38 fold | Fold change (gene expression) (TXNRD1 - Thioredoxin reductase 1, Oxidative stress): 1.45 fold | Fold change (gene expression) (UGCG - UDP-glucose ceramide glucosyltransferase, Lipid metabolism and transport): 1.24 fold | Fold change (gene expression) (VIT - Vitrin, ECM): 0.14 fold
